Columns and labels:
Format in all cases: physicochemical
[1] = Surface tension of the aqueous solution, Du Nouy tensiometer; details: for SURFACE TENSION (dynes/cm) 100 ppm: 100 ppm in water; for SURFACE TENSION (dynes/cm) 500 ppm: 500 ppm in water
Method: (§1) The materials of the invention were diluted in water to 0.05% (500 ppm) and/or 0.01% (100 ppm), and the surface tension of the aqueous solution was measured using a Du Nouy tensiometer. Foam height was measured as volume in a graduated cylinder. Half-life time (t ½) is the time for half the liquid present in the foam to drain from the foam. The foam was generated by a wire wisk in a Hobart mixer. Thus, 200 mL of surfactant solution to be tested is placed in a bowl of Hobart Model N-50 mixer equipped with a wire wisk stirrer and stirred for 3 minutes at medium speed (setting 2=300 rpm). The foam produced was immediately transferred to a 4000 mL graduated cylinder for measuring foam height and half-life time.

[2] = Foam height, foam generated in Hobart mixer; details: 500 ppm in water; 200 mL solution stirred 3 minutes
Method: as §1

[3] = Foam half-life time (drainage of half the liquid); details: 500 ppm in water
Method: as §1

| Molecule | SURFACE TENSION (dynes/cm) 100 ppm [1] [dynes/cm] | SURFACE TENSION (dynes/cm) 500 ppm [1] [dynes/cm] | other results |
| --- | --- | --- | --- |
| O=C(CC(C(=O)OCCC(F)(F)C(F)(F)C(F)(F)C(F)(F)F)S(=O)(=O)[O-])OCCC(F)(F)C(F)(F)C(F)(F)C(F)(F)F.[Na+] (centres unmarked) [C14, reference compound] | 30.5 | 21.7 | – |
| N.O=S(=O)(O)OCCC(F)(F)C(F)(F)C(F)(F)C(F)(F)C(F)(F)C(F)(F)C(F)(F)C(F)(F)F [Example 43, C8F17CH2CH2OSO3NH4] | – | – | SURFACE TENSION (dyne/cm) 500 ppm ([1]; 500 ppm as printed (second surface tension column of Tables 12, 14)): 22.8 dyne/cm; SURFACE TENSION (dyne/cm) 500 ppm ([1]; 500 ppm in water (first surface tension column of Tables 12, 14)): 19.5 dyne/cm; FOAM HEIGHT (VOLUME) [2]: 400; HALF-LIFE TIME (SEC) / t ½ [3]: <30 s |
| O=C(CC(C(=O)OCCC(F)(F)C(F)(F)C(F)(F)C(F)(F)F)S(=O)(=O)[O-])OCCC(F)(F)C(F)(F)C(F)(F)C(F)(F)F.[Na+] (centres unmarked) [Example 45, C4F9CH2CH2OC(O)CH2CH(SO3Na)C(O)OCH2CH2C4F9] | 24.2 | 17.7 | – |
| CC(C)(CNC(=O)CCSCCC(F)(F)C(F)(F)C(F)(F)C(F)(F)C(F)(F)C(F)(F)C(F)(F)C(F)(F)F)CS(=O)(=O)[O-].[K+] [Example 47, C8F17CH2CH2SCH2CH2C(O)NHCH2C(CH3)2CH2SO3K] | 24.0 | 19.0 | – |

The next lines start with results.

| SURFACE TENSION (dynes/cm) 100 ppm [1] [dynes/cm] | SURFACE TENSION (dynes/cm) 500 ppm [1] [dynes/cm] | Molecule | other results |
| --- | --- | --- | --- |
| 26.2 | 20.1 | CC(C)(CNC(=O)CCNCCNCCC(=O)OCCC(F)(F)C(F)(F)C(F)(F)C(F)(F)C(F)(F)C(F)(F)C(F)(F)C(F)(F)F)CS(=O)(=O)[O-].[K+] [Example 55, C8F17CH2CH2OC(O)CH2CH2NHCH2CH2NHCH2CH2C(O)NHCH2C(CH3)2CH2SO3K] | – |
| 21.3 | 19.9 | CCS(=O)(=O)[O-].CC[N+](C)(C)CCOC(=O)CCNCCNCCC(=O)OCCC(F)(F)C(F)(F)C(F)(F)C(F)(F)C(F)(F)C(F)(F)C(F)(F)C(F)(F)F [Example 61, [C8F17CH2CH2OC(O)CH2CH2NHCH2CH2NHCH2CH2C(O)OCH2CH2N^+(CH3)2CH2CH3] [CH3CH2SO^−3]] | – |
| – | 17.5 | CCCCCCCCCC(O)C/[N+](C)=C/CCCS(=O)(=O)[O-] (centres unmarked) [Example 71] | – |
| – | 21.7 | C8F17C2H4O(C2H4O)nH [Example 69] | – |
| – | 23.1 | C8F17CH2CH2S(CH2CH2O)12(CH2CH(CH3)O)3H [Example 70] | – |
